Measurements taken from PubChem BioAssay AID330 (DTP/NCI, 2004).
Several values for one entry are separate records, joined by “and”; a condition that tells them apart may be missing. Equal values may be shown once. Toxic doses and inconclusive results are not listed.

Tested on: P388 leukemia ip, CD2F1 mice, survival T/C
Assay: NCI In Vivo Anticancer Drug Screen. Data for tumor model P388 Leukemia (intraperitoneal) in CD2F1 (CDF1) mice
Conditions: endpoint: median survival time, higher = longer survival
Method in brief: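 Mice carrying the transplanted tumor received test compound or vehicle. Survival was recorded in each group, and the value is the treated-group measurement divided by that of the vehicle-treated control group.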

[1] = dose: 100.0 mg/kg/injection, schedule: Q01DX009 (ip), vehicle: saline
[2] = dose: 200.0 mg/kg/injection, schedule: Q01DX009 (ip), vehicle: saline
[3] = dose: 50.0 mg/kg/injection, schedule: Q01DX009 (ip), vehicle: saline with Tween-80
[4] = dose: 100.0 mg/kg/injection, schedule: Q01DX009 (ip), vehicle: saline with Tween-80
[5] = dose: 100.0 mg/kg/injection, schedule: Q04DX003 (ip), vehicle: saline with Tween-80
[6] = dose: 200.0 mg/kg/injection, schedule: Q04DX003 (ip), vehicle: saline with Tween-80

Question: With CSC(=S)N=Nc1c(O)[nH]c2ccccc12 as the compound, how does the T/C (dose: 50.0 mg/kg/injection, schedule: Q01DX009 (ip), vehicle: saline) read?
Answer: 93 % of control

Question: And the T/C [1]?
Answer: 96 % of control

Question: What about the T/C [2] of the same compound?
Answer: 99 % of control

Question: What does the source list for CC(C)NC(=O)OCc1c(COC(=O)NC(C)C)c(S(C)(=O)=O)n2c1CCC2?
Answer: T/C (dose: 25.0 mg/kg/injection, schedule: Q01DX005 (ip), vehicle: saline with Tween-80): 89 % of control; T/C (dose: 50.0 mg/kg/injection, schedule: Q01DX005 (ip), vehicle: saline with Tween-80): 86 % of control; T/C (dose: 100.0 mg/kg/injection, schedule: Q01DX005 (ip), vehicle: saline with Tween-80): 88 % of control; T/C (dose: 200.0 mg/kg/injection, schedule: Q01DX005 (ip), vehicle: saline with Tween-80): 91 % of control

Question: Which T/C (dose: 60.0 mg/kg/injection, schedule: Q01DX005 (ip), vehicle: saline with Tween-80) does the source give for O=C(Nc1ccc(Cl)cc1Cl)c1ccc2c(c1)C(=O)OC2=O here?
Answer: 98 % of control

Question: And the T/C (dose: 120.0 mg/kg/injection, schedule: Q01DX005 (ip), vehicle: saline with Tween-80)?
Answer: 89 % of control

Question: And the T/C (dose: 240.0 mg/kg/injection, schedule: Q01DX005 (ip), vehicle: saline with Tween-80)?
Answer: 86 % of control

Question: CCCCCOC(=O)c1ccc(O)cc1 was tested. Which T/C (dose: 12.5 mg/kg/injection, schedule: Q01DX009 (ip), vehicle: saline with Tween-80) did it give?
Answer: 108 % of control

Question: What about the T/C (dose: 25.0 mg/kg/injection, schedule: Q01DX009 (ip), vehicle: saline with Tween-80) of the same compound?
Answer: 100 % of control

Question: What about the T/C [3] of the same compound?
Answer: 99 % of control and 100 % of control

Question: What about the T/C [4] of the same compound?
Answer: 94 % of control

Question: Nc1ccc(-c2c3ccccc3nc3cc(N)ccc23)cc1 was tested. Which T/C (dose: 50.0 mg/kg/injection, schedule: Q01DX005 (ip), vehicle: saline) did it give?
Answer: 118 % of control

Question: What about the T/C (dose: 100.0 mg/kg/injection, schedule: Q01DX005 (ip), vehicle: saline) of the same compound?
Answer: 115 % of control

Question: Which results are given for FC(F)(F)c1nnc(-c2ccccc2)nn1?
Answer: T/C (dose: 100.0 mg/kg/injection, schedule: Q04DX002 (ip), vehicle: Klucel (hydroxypropylcellulose) (HPC)): 100 % of control; T/C (dose: 200.0 mg/kg/injection, schedule: Q04DX002 (ip), vehicle: Klucel (hydroxypropylcellulose) (HPC)): 104 % of control

Question: Which results are given for C/C=C(\C)C(=O)N/N=C\c1cc(Cl)cc(Cl)c1O?
Answer: T/C (dose: 12.5 mg/kg/injection, schedule: Q01DX009 (ip), vehicle: olive oil, sesame oil, peanut oil): 106 % of control; T/C (dose: 25.0 mg/kg/injection, schedule: Q01DX009 (ip), vehicle: olive oil, sesame oil, peanut oil): 98 % of control; T/C (dose: 50.0 mg/kg/injection, schedule: Q01DX009 (ip), vehicle: olive oil, sesame oil, peanut oil): 106 % of control; T/C (dose: 100.0 mg/kg/injection, schedule: Q01DX009 (ip), vehicle: olive oil, sesame oil, peanut oil): 102 % of control; T/C (dose: 200.0 mg/kg/injection, schedule: Q01DX009 (ip), vehicle: olive oil, sesame oil, peanut oil): 96 % of control; T/C (dose: 400.0 mg/kg/injection, schedule: Q01DX009 (ip), vehicle: olive oil, sesame oil, peanut oil): 93 % of control

Question: Which results are given for COc1cccc2c1C(=O)c1c(O)c3c(c(O)c1C2=O)C[C@@](O)(C(O)O)C[C@@H]3OC1CC(N)C(O)C(C)O1 (some centres not stated)?
Answer: T/C (dose: 2.0 mg/kg/injection, schedule: Q01DX009 (ip), vehicle: water): 168 % of control; T/C (dose: 4.0 mg/kg/injection, schedule: Q01DX009 (ip), vehicle: water): 154 % of control; T/C (dose: 100.0 mg/kg/injection, schedule: Q04DX003 (ip), vehicle: water): 109 % of control and 121 % of control

Question: With CCc1nnc2c(C)c(C)nc(C)n12 as the compound, how does the T/C [5] read?
Answer: 94 % of control

Question: And the T/C [6]?
Answer: 100 % of control

Question: For CCCCCCCCCC(=O)c1ccc(O)c(O)c1O, which T/C [1] is on record?
Answer: 100 % of control

Question: And the T/C [2]?
Answer: 105 % of control

Question: How did the T/C [5] turn out when CCOc1ccc2cc(S(=O)(=O)O)ccc2c1N was run?
Answer: 100 % of control

Question: And the T/C [6]?
Answer: 90 % of control

Question: What about the T/C (dose: 400.0 mg/kg/injection, schedule: Q04DX003 (ip), vehicle: saline with Tween-80) of the same compound?
Answer: 100 % of control

Question: For CNc1nc2c(N)ncnc2n1C1OC(CO)C(O)C1O (configuration not stated), which T/C (dose: 6.25 mg/kg/injection, schedule: Q01DX009 (ip), vehicle: suspension in saline) is on record?
Answer: 94 % of control

Question: And the T/C (dose: 12.5 mg/kg/injection, schedule: Q01DX009 (ip), vehicle: suspension in saline)?
Answer: 112 % of control

Question: For O=C(Nc1cc(Cl)cc(Cl)c1)OC1CC2CC1C1CC3OC3C21 (configuration not stated), which T/C (dose: 50.0 mg/kg/injection, schedule: Q01DX005 (ip), vehicle: Klucel (hydroxypropylcellulose) (HPC)) is on record?
Answer: 94 % of control

Question: And the T/C (dose: 100.0 mg/kg/injection, schedule: Q01DX005 (ip), vehicle: Klucel (hydroxypropylcellulose) (HPC))?
Answer: 99 % of control

Question: What about the T/C (dose: 200.0 mg/kg/injection, schedule: Q01DX005 (ip), vehicle: Klucel (hydroxypropylcellulose) (HPC)) of the same compound?
Answer: 92 % of control

Question: Which results are given for Nc1ccc2c(n1)NCC/C2=N\Nc1ccccc1?
Answer: T/C [3]: 115 % of control; T/C [4]: 96 % of control; T/C (dose: 200.0 mg/kg/injection, schedule: Q01DX009 (ip), vehicle: saline with Tween-80): 100 % of control
